In patent US8871767B2, “2-arylimidazo[1,2-B]pyridazine, 2-phenylimidazo[1,2-A]pyridine, and 2-phenylimidazo[1,2-A]pyrazine derivatives” (Hengrui (USA) Ltd., priority 2010, dated 2014):
Read-outs that look alike come from different tables or passages of the source.

Key:
[1] = system: Hedgehog pathway activation (GLi-luciferase reporter) in Shh Light II reporter cells; assay: Hedgehog pathway activation on Shh Light II reporter cells measured by luciferase activity; format: cell-based
In short: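 Shh Light II reporter cells carrying a hedgehog-responsive GLi-luciferase reporter were stimulated either with 500 nM SAG, a direct Smoothened agonist, or with conditioned media containing human Sonic Hedgehog (hShh). Test compounds were evaluated for blocking this pathway activation, quantified by luciferase activity. Cell viability was monitored in parallel with the Celltiter-Blue® assay.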

[2] = system: Hedgehog pathway activation on 10T1/2/Smo#3 cells (C3H10T1/2 cells transfected with human Smoothened receptor); assay: Hedgehog pathway activation on 10T1/2/Smo#3 cells measured by ALP activity; format: cell-based
In short: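 Inhibition of alkaline phosphatase induction, read fluorometrically from 4-methylumbelliferyl phosphate conversion, gave IC50 values; CellTiter-Blue tracked viability in parallel. Cells were the human Smo-transfected 10T1/2/Smo#3 pool, stimulated by 10-20% hShh conditioned medium or the Smo agonist SAG (500 nM).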

[3] = Mus musculus, Shh Light II, hShh activation, read-out: Shh (IC50, inhibition of Hedgehog pathway activation)
[4] = Mus musculus, C3H 10T1/2, 10T1/2/Smo#3 cells, measured by ALP activity, read-out: ALP (IC50, inhibition of Hedgehog pathway activation)
[5] = Mus musculus, Shh Light II, SAG activation (500 nM SAG), read-out: Shh Light II luciferase activity (SAG activation)
[6] = Mus musculus, Shh Light II, hShh activation, read-out: Shh Light II luciferase activity (hShh activation)
[7] = Mus musculus, C3H 10T1/2, 10T1/2/Smo#3 cells, hShh activation, ALP activity, read-out: 10T1/2/Smo#3 ALP activity (hShh Activation)

Row | Compound | IC50 ([1]; hShh activation, read-out: Shh (IC50, inhibition of Hedgehog pathway activation)) [µM] | IC50 ([2]; 10T1/2/Smo#3 cells, measured by ALP activity, read-out: ALP (IC50, inhibition of Hedgehog pathway activation)) [µM] | IC50 [1, 3] [µM] | IC50 [2, 4] [µM] | IC50 [1, 5] [µM] | IC50 [1, 6] [µM] | IC50 [2, 7] [µM]
1 | CCc1ccc(-c2cn3nc(-c4cccnc4C(F)(F)F)ccc3n2)cc1NC(=O)C1(C)CC1 [Example 636, N-(2-ethyl-5-(6-(2-(trifluoromethy)pyridin-3-y)imidazo[1,2-b]pyridazin-2-yl)phenyl)-1-methylcyclopropanecarboxamide] | 0.131 | 0.035 | – | – | – | – | –
2 | Cc1ccc(-c2cn3nc(N4CC[C@@H](N(C)C)C4)ccc3n2)cc1NC(=O)C(C)(C)C [Example 472, (R)-N-(5-(6-(3-(dimethylamino)pyrrolidin-1-yl)imidazo[1,2-b]pyridazin-2-yl)-2-methylphenyl)pivalamide] | – | – | 0.084 | 0.11 | – | – | –
3 | CCOC(=O)Nc1cc(-c2cn3nc(-c4cccnc4C(F)(F)F)ccc3n2)ccc1F [Example 682, ethyl 2-fluoro-5-(6-(2-(trifluoromethyl)pyridin-3-yl)imidazo[1,2-b]pyridazin-2-yl)phenylcarbamate] | – | – | 0.571 | 1.74 | – | – | –
4 | CCNC1CCN(c2ccc3nc(-c4ccc(C)c(NC(=O)C(C)(C)C)c4)cn3n2)C1 (stereo not shown) [Example 474, N-(5-(6-(3-(ethylamino)pyrrolidin-1-yl)imidazo[1,2-b]pyridazin-2-yl)-2-methylphenyl)pivalamide] | – | – | 0.031 | 0.034 | – | – | –
5 | CCN[C@@H]1CCN(c2ccc3nc(-c4ccc(C)c(NC(=O)C(C)(C)C)c4)cn3n2)C1 [Example 393, (R)-N-(5-(6-(3-(ethylamino)pyrrolidin-1-yl)imidazo[1,2-b]pyridazin-2-yl)-2-methylphenyl)pivalamide] | – | – | 0.031 | 0.034 | 0.3 to 3 | < 0.3 | < 0.3
6 | COc1ccc2nc(-c3ccc(Cl)c(NC(=O)C4CCCC4)c3)cn2n1 [Example 112, N-(2-chloro-5-(6-methoxyimidazo[1,2-b]pyridazin-2-yl)phenyl)cyclopentanecarboxamide] | – | – | > 10 | 9.52 | – | – | –
7 | CCOc1ccc2nc(-c3ccc(C(F)(F)F)c(Br)c3)cn2n1 [Example 204, 2-(3-bromo-4-(trifluoromethyl)phenyl)-6-ethoxyimidazo[1,2-b]pyridazine] | – | – | > 10 | 9.53 | 3 to 30 | 3 to 30 | 3 to 30
8 | Cc1c(-c2cccc(NC(=O)C3CCCCC3)c2)nc2ncccn12 [Example 92, N-(3-(3-methylimidazo[1,2-a]pyrimidin-2-yl)phenyl)cyclohexanecarboxamide] | – | – | – | – | 3 to 30 | 3 to 30 | 3 to 30
9 | Cc1ccc(-c2cn3nc(N4CCOCC4)ccc3n2)cc1NC(=O)C(C)(C)C [Example 128, N-(2-methyl-5-(6-morpholinoimidazo[1,2-b]pyridazin-2-yl)phenyl)pivalamide] | – | – | > 10 | 0.422 | 3 to 30 | 3 to 30 | 0.3 to 3
10 | COc1ccc2nc(-c3ccc(C)c(NC(=O)C(C)(C)C)c3)c(C)n2n1 [Example 121, N-(5-(6-methoxy-3-methylimidazo[1,2-b]pyridazin-2-yl)-2-methylphenyl)pivalamide] | – | – | 2 | 1.87 | 3 to 30 | 0.3 to 3 | 0.3 to 3
11 | CCc1ccc(-c2cn3nc(-c4cccnc4C(F)(F)F)ccc3n2)cc1NC(=O)C1(C)CC1 [Example 633] | – | – | – | – | < 0.3 | < 0.3 | < 0.3
12 | Cc1ccc(-c2cn3nc(-c4cccc(C(F)(F)F)c4)ccc3n2)cc1NC(=O)C(C)(C)C [Example 260, N-(2-methyl-5-(6-(3-(trifluoromethyl)phenyl)imidazo[1,2-b]pyridazin-2-yl)phenyl)pivalamide] | – | – | 0.297 | 0.325 | – | – | –
13 | O=C(Nc1cc(-c2cn3nc(-c4cccnc4C(F)(F)F)ccc3n2)ccc1Cl)N1CC(F)(F)C1 [Example 669, N-(2-chloro-5-(6-(2-(trifluoromethyl)pyridin-3-yl)imidazo[1,2-b]pyridazin-2-yl)phenyl)-3,3-difluoroazetidine-1-carboxamide] | – | – | 0.028 | 0.125 | < 0.3 | < 0.3 | < 0.3
14 | Cc1ccc(-c2cn3nc(-c4ccc(-c5ccc(Cl)nc5)nc4)ccc3n2)cc1NC(=O)C(C)(C)C [Example 401, N-(5-(6-(6′-chloro-2,3′-bipyridin-5-yl)imidazo[1,2-b]pyridazin-2-yl)-2-methylphenyl)pivalamide] | – | – | 0.4 | 0.234 | – | – | –
15 | Cc1ccc(-c2cn3nc(-c4cccnc4C(F)(F)F)ccc3n2)cc1NC(=O)NC(C)(C)C [Example 646, 1-tert-butyl-3-(2-methyl-5-(6-(2-(trifluoromethyl)pyridin-3-yl)imidazo[1,2-b]pyridazin-2-yl)phenyl)urea] | – | – | 0.038 | 0.016 | 0.3 to 3 | < 0.3 | < 0.3
16 | COc1cc(CN(Cc2cc(OC)cc(OC)c2)c2cc(-c3cn4nc(OC)ccc4n3)ccc2C)cc(OC)c1 [Example 104, N,N-bis(3,5-dimethoxybenzyl)-5-(6-methoxyimidazo[1,2-b]pyridazin-2-yl)-2-methylaniline] | – | – | > 10 | > 10 | 3 to 30 | 3 to 30 | 3 to 30
17 | Cc1ccc(-c2cn3nc(-c4cc(F)ccc4F)ccc3n2)cc1NC(=O)C(C)(C)C [Example 261, N-(5-(6-(2,5-difluorophenyl)imidazo[1,2-b]pyridazin-2-yl)-2-methylphenyl)pivalamide] | – | – | 0.142 | 0.091 | – | – | –
18 | O=C(Nc1cc(-c2cn3nc(-c4cccnc4C(F)(F)F)ccc3n2)ccc1Cl)C1CCCCC1 [Example 670, N-(2-chloro-5-(6-(2-(trifluoromethyl)pyridin-3-yl)imidazo[1,2-b]pyridazin-2-yl)phenyl)cyclohexanecarboxamide] | – | – | 0.061 | 0.62 | – | – | –
19 | Cc1ccc(-c2cn3nc(-c4ccccc4F)ccc3n2)cc1NC(=O)C(C)(C)C [Example 220, N-(5-(6-(2-fluorophenyl)imidazo[1,2-b]pyridazin-2-yl)-2-methylphenyl)pivalamide] | – | – | 0.052 | 0.028 | – | – | –

Continued, values first:

Row | IC50 ([1]; hShh activation, read-out: Shh (IC50, inhibition of Hedgehog pathway activation)) [µM] | IC50 ([2]; 10T1/2/Smo#3 cells, measured by ALP activity, read-out: ALP (IC50, inhibition of Hedgehog pathway activation)) [µM] | IC50 [1, 3] [µM] | IC50 [2, 4] [µM] | IC50 [1, 5] [µM] | IC50 [1, 6] [µM] | IC50 [2, 7] [µM] | Compound
20 | – | – | 1.02 | 1.75 | 0.3 to 3 | 0.3 to 3 | 0.3 to 3 | Cc1cccc(-c2ccc3nc(-c4ccc(C(F)(F)F)c(NC(=O)C(C)(C)C)c4)cn3n2)n1 [Example 149, N-(5-(6-(6-methylpyridin-2-yl)imidazo[1,2-b]pyridazin-2-yl)-2-(trifluoromethyl)phenyl)pivalamide]
21 | – | – | 0.634 | 1.28 | – | – | – | CC(C)OCCOc1ccc2nc(-c3ccc(C(F)(F)F)c(NC(=O)C(C)(C)C)c3)cn2n1 [Example 374, N-(5-(6-(2-isopropoxyethoxy)imidazo[1,2-b]pyridazin-2-yl)-2-(trifluoromethyl)phenyl)pivalamide]
22 | – | – | 0.251 | 0.679 | – | – | – | CCOC(=O)COc1ccc(-c2ccc3nc(-c4ccc(C)c(NC(=O)C(C)(C)C)c4)cn3n2)c(C(F)(F)F)c1 [Example 411, ethyl 2-(4-(2-(4-methyl-3-pivalamidophenyl)imidazo[1,2-b]pyridazin-6-yl)-3-(trifluoromethyl)phenoxy)acetate]
23 | – | – | 0.041 | 0.221 | – | – | – | CC(C)(C)C(=O)Nc1cc(-c2cn3nc(-c4ccccc4F)ccc3n2)ccc1C(F)(F)F [Example 171, N-(5-(6-(2-fluorophenyl)imidazo[1,2-b]pyridazin-2-yl)-2-(trifluoromethyl)phenyl)pivalamide]
24 | – | – | 0.309 | 0.514 | – | – | – | CC(C)(C)C(=O)Nc1cc(-c2cn3nc(N4CCCC(C(F)(F)F)C4)ccc3n2)ccc1C(F)(F)F (stereo not shown) [Example 356, N-(2-(trifluoromethyl)-5-(6-(3-(trifluoromethyl)piperidin-1-yl)imidazo[1,2-b]pyridazin-2-yl)phenyl)pivalamide]
25 | – | – | 1.85 | 1.91 | – | – | – | CC(C)(C)C(=O)Nc1cc(-c2cn3nc(N(CCO)CCO)ccc3n2)ccc1C(F)(F)F [Example 359, N-(5-(6-(bis(2-hydroxyethyl)amino)imidazo[1,2-b]pyridazin-2-yl)-2-(trifluoromethyl)phenyl)pivalamide]
26 | – | – | 0.193 | 0.736 | – | – | – | CCOC(=O)CCCCOc1ccc(C(F)(F)F)c(-c2ccc3nc(-c4ccc(C)c(NC(=O)C(C)(C)C)c4)cn3n2)c1 [Example 433, ethyl 5-(3-(2-(4-methyl-3-pivalamidophenyl)imidazo[1,2-b]pyridazin-6-yl)-4-(trifluoromethyl)phenoxy)pentanoate]
27 | – | – | 1.07 | 1.2 | – | – | – | C[C@H]1CCCC[C@H]1Oc1ccc2nc(-c3ccc(C(F)(F)F)c(NC(=O)C(C)(C)C)c3)cn2n1 [Example 308, N-(5-(6-((1R,2S)-2-methylcyclohexyloxy)imidazo[1,2-b]pyridazin-2-yl)-2-(trifluoromethyl)phenyl)pivalamide]
28 | – | – | 0.003 | 0.001 | – | – | – | Cc1ccc(-c2cn3nc(-c4cnccc4C(F)(F)F)ccc3n2)cc1NC(=O)C(C)(C)C [Example 364, N-(2-methyl-5-(6-(4-(trifluoromethyl)pyridin-3-yl)imidazo[1,2-b]pyridazin-2-yl)phenyl)pivalamide]
